Assay results published in patent US10301284B2, “Therapeutic inhibitory compounds” (LifeSci Pharmaceuticals, Inc., priority 2016, dated 2019).
Read-outs that look alike come from different tables or passages of the source.

How the values were obtained:
[1] = Pharmacokinetic evaluation, oral exposure in rats; assay type: in vivo; details: male Sprague-Dawley rats, single oral dose 10 mg/kg via oral gavage, plasma
Method: Pharmacokinetic studies of select compounds were performed to assess the pharmacokinetic properties. Male Sprague-Dawley rats were administered a single oral dose of the test compound at 10 mg/kg (dose concentration: 2 mg/mL, dose volume: 5 ml/kg) via oral gavage. Blood samples were collected via jugular vein at pre-dose, post-dose 5 min, 15 min, 30 min, 1 h, 2 h, 4 h, 6 h, 8 h, 10 h and 24 h, and centrifuged (8000 rpm for 6 minutes at 2-8° C.). The resulting plasma fractions were analyzed by LC/MS/MS to determine the concentration of the test compound.

human Plasma Kallikrein [2] = target: T1, human Plasma Kallikrein (Homo sapiens (Human), UniProt P03952); assay: In vitro enzyme inhibition of human plasma kallikrein (Pro-Phe-Arg-AMC cleavage); assay type: biochemical; details: human plasma kallikrein, PFR-AMC substrate, 37° C.; read-out: hPK IC50
T1 sequence (P03952 391-638 limits assumed): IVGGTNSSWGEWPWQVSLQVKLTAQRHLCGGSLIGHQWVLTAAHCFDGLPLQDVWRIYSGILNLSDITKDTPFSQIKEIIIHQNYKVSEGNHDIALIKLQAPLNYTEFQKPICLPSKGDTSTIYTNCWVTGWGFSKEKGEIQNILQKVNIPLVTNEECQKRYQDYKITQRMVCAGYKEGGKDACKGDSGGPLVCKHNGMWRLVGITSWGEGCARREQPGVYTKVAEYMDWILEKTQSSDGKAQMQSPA
T1 sequence (P03952 20-390 partner limits assumed): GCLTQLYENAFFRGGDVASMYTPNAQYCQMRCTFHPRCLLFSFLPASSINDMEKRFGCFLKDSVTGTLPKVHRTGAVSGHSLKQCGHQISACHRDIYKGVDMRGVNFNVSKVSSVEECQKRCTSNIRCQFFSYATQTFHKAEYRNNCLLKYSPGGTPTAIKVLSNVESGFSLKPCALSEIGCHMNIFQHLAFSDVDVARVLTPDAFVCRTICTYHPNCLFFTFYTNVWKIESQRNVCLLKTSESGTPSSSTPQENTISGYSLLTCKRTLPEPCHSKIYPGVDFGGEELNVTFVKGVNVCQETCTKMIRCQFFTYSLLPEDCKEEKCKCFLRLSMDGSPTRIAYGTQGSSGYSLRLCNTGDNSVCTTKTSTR
Procedure, shortened: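 Human plasma kallikrein preincubated 5 min at 37 °C with compound in 50 mM Tris-HCl pH 7.5, 150 mM NaCl, 0.01% Triton X-100. Reaction started with Pro-Phe-Arg-AMC, fluorescence read every 43 s for 1 h at 37 °C. IC50 from highest mean velocity over 20 reads (~15 min).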

human Plasma Kallikrein [3] = target: T1, human Plasma Kallikrein; assay: Human whole blood kallikrein inhibition (ellagic acid-activated human plasma, Z-FR-2-AMC substrate); assay type: biochemical
Method: The ability of the compounds disclosed herein to inhibit human plasma kallikrein activity was quantified according to the procedures below.
All dilutions were prepared in an assay buffer comprising 50 mM Tris-HCl pH 7.2, 150 mM NaCl, and 0.01% Triton X-100.
Human plasma was thawed on ice and centrifuged for 15 min at 4° C. to remove platelets. A 1 mM stock solution of ellagic acid was diluted to 8 μM and mixed with human plasma, after removing platelets, at a ratio of 1:0.8. The mixture of human plasma and ellagic acid was further diluted 32-fold in the assay buffer, to yield the final mixture for use in the inhibition assay.
A 22.5 μL volume of the final mixture of human plasma and ellagic acid was added to a 96-well microwell plate and the plate was incubated for 15 min at 37° C.
The test compound solution was prepared to provide final concentrations of 20 μM, 5 μM, 1.25 μM, 312.5 nM, 78.125 nM, 19.531 nM, 4.883 nM, 1.221 nM, 0.305 nM, and 0.076 nM. Each test compound concentration was tested in duplicates.
In addition to the inhibitor control and test wells, the 96 well assay plate included positive control wells which contain the mixture of human plasma and ellagic acid without test compounds, and background wells which contain neither the mixture of human plasma and ellagic acid nor the test compounds. The total volume of liquid in positive control and background wells was brought up to 35 μL using the assay buffer.
The assay plate containing test compounds mixed with human plasma and ellagic acid and appropriate controls was incubated at 37° C. for 5 min. A 10 mM stock solution of substrate Z-FR-2-AMC was diluted to 133.2 μM in the assay buffer, and 15 μL of the diluted substrate was added to each well, to yield a final substrate concentration of 40 μM in each well. The reagents were mixed by shaking the plate gently for 30 sec.
The enzyme reaction was quantified by immediate kinetic reading of the assay plate using excitation/emission wavelengths of 330 nm/440 nm respectively. Fluorescence intensity was recorded for 60 min, using a time interval of 43 sec.
The inhibition activity of the test compounds were evaluated using the IC50 values, calculated according to the dose-response curve of the test compounds, fitted using the “log(inhibitor)−response(variable slope)” equation in GraphPadPrism software (GraphPad Software, Inc.).
The percentage inhibition (EC50) was calculated using the following equation:
[formula] where, Mean(BG) is the average value of the fluorescence intensity of the background wells and Mean(PC) is the average value of the fluorescence intensity of the positive control wells.

[4] = human plasma activated with ellagic acid, Z-FR-2-AMC 40 μM, 37° C., read-out: HWB EC50

SMILES | AUC ([1]; rat, read-out: AUC) [ng·h/mL] | IC50 (human Plasma Kallikrein [2]) [nM] | EC50 (human Plasma Kallikrein [3]; [4]) [nM] | EC50 (human Plasma Kallikrein [3]) [nM] | AUC [1]
Cc1cc(N)nc(C)c1CNC(=O)c1cn(Cc2ccc3ncc(Cl)cc3c2)nn1 [Example 10, N-((6-amino-2,4-dimethylpyridin-3-yl)methyl)-1-((3-chloroquinolin-6-yl)methyl)-1H-1,2,3-triazole-4-carboxamide] | 1000 to 10000 | < 100 | < 100 |  | 
Cc1cc(N)nc(C)c1CNC(=O)c1cn(Cc2ccc3ncc(Cl)cc3c2)nc1N [Example 17, 3-amino-N-((6-amino-2,4-dimethylpyridin-3-yl)methyl)-1-((3-chloroquinolin-6-yl)methyl)-1H-pyrazole-4-carboxamide] | 100 to 1000 | < 100 | < 100 |  | 
Cc1cnc2c(C(N)=O)cc(Cn3cc(C(=O)NCc4c(C)cc(N)nc4C)c(C#N)n3)cc2c1 [Example 78, 6-((4-(((6-amino-2,4-dimethylpyridin-3-yl)methyl)carbamoyl)-3-cyano-1H-pyrazol-1-yl)methyl)-3-methylquinoline-8-carboxamide] | < 100 | < 100 | < 100 |  | 
Cc1cc(N)nc(C)c1CNC(=O)c1nn(Cc2ccc3ncc(Cl)cc3c2)c2ccc(=O)[nH]c12 [Example 138, N-((6-amino-2,4-dimethylpyridin-3-yl)methyl)-1-((3-chloroquinolin-6-yl)methyl)-5-oxo-4,5-dihydro-1H-pyrazolo[4,3-b]pyridine-3-carboxamide] | < 100 | < 100 |  | < 100 | 
Cc1cc(N)nc(C)c1CNC(=O)c1coc(Cc2ccc3ncc(Cl)cc3c2)n1 [Example 29, N-((6-amino-2,4-dimethylpyridin-3-yl)methyl)-2-((3-chloroquinolin-6-yl)methyl)oxazole-4-carboxamide] | 1000 to 10000 | < 100 | < 100 |  | 
Cc1cc(N)nc(C)c1CNC(=O)c1nnc(Cc2ccc3ncc(Cl)cc3c2)[nH]1 [Example 96, N-((6-amino-2,4-dimethylpyridin-3-yl)methyl)-5-((3-chloroquinolin-6-yl)methyl)-4H-1,2,4-triazole-3-carboxamide] | > 10000 | < 100 | < 100 |  | 
COc1cc2c(C(=O)NCc3c(C)cc(N)nc3C)nn(Cc3ccc4ncc(Cl)cc4c3)c2cn1 [Example 122, N-((6-amino-2,4-dimethylpyridin-3-yl)methyl)-1-((3-chloroquinolin-6-yl)methyl)-5-methoxy-1H-pyrazolo[3,4-c]pyridine-3-carboxamide] | 100 to 1000 | < 100 |  | < 100 | 
Cc1cc(N)nc(C)c1CNC(=O)c1nnc(Cc2cc(F)c3ncc(Cl)cc3c2)o1 [Example 75, N-((6-amino-2,4-dimethylpyridin-3-yl)methyl)-5-((3-chloro-8-fluoroquinolin-6-yl)methyl)-1,3,4-oxadiazole-2-carboxamide] | 1000 to 10000 | < 100 | < 100 |  | 
Cc1cc(N)nc(C)c1CNC(=O)c1nn(Cc2ccc3ncc(Cl)cc3c2)cc1C#N [Example 36, N-((6-amino-2,4-dimethylpyridin-3-yl)methyl)-1-((3-chloroquinolin-6-yl)methyl)-4-cyano-1H-pyrazole-3-carboxamide] | 100 to 1000 | < 100 | < 100 |  | 
Cc1nc(N)ccc1CNC(=O)c1cn(Cc2ccc3ncc(C(F)(F)F)cc3c2)nc1C#N [Example 74, N-((6-amino-2-methylpyridin-3-yl)methyl)-3-cyano-1-((3-(trifluoromethyl)quinolin-6-yl)methyl)-1H-pyrazole-4-carboxamide] | 1000 to 10000 | < 100 | < 100 |  | 
Cc1cc(N)nc(C)c1CNC(=O)c1nn(Cc2ccc3ncc(Cl)cc3c2)c2cncc(C#N)c12 [Example 129, N-((6-amino-2,4-dimethylpyridin-3-yl)methyl)-1-((3-chloroquinolin-6-yl)methyl)-4-cyano-1H-pyrazolo[3,4-c]pyridine-3-carboxamide] | < 100 | < 100 |  | < 100 | 
Cc1cc(N)nc(C)c1CNC(=O)c1nnc(Cc2ccc3ncc(Cl)cc3c2)o1 [Example 30, N-((6-amino-2,4-dimethylpyridin-3-yl)methyl)-5-((3-chloroquinolin-6-yl)methyl)-1,3,4-oxadiazole-2-carboxamide] | 1000 to 10000 | < 100 | < 100 |  | 
Cc1cc(N)nc(C)c1CNC(=O)c1cn(Cc2ccc3ncc(Cl)cc3c2)c2nccc(C#N)c12 [Example 127, N-((6-amino-2,4-dimethylpyridin-3-yl)methyl)-1-((3-chloroquinolin-6-yl)methyl)-4-cyano-1H-pyrrolo[2,3-b]pyridine-3-carboxamide] | 100 to 1000 | < 100 |  | < 100 | 
COc1nn(Cc2ccc3ncc(Cl)cc3c2)cc1C(=O)NCc1c(C)cc(N)nc1C [Example 39, N-((6-amino-2,4-dimethylpyridin-3-yl)methyl)-1-((3-chloroquinolin-6-yl)methyl)-3-methoxy-1H-pyrazole-4-carboxamide] | 1000 to 10000 | < 100 | < 100 |  | 
Cc1cnc2c(S(C)(=O)=O)cc(Cn3cc(C(=O)NCc4c(C)cc(N)nc4C)c(C#N)n3)cc2c1 [Example 61, N-((6-amino-2,4-dimethylpyridin-3-yl)methyl)-3-cyano-1-((3-methyl-8-(methylsulfonyl)quinolin-6-yl)methyl)-1H-pyrazole-4-carboxamide] | < 100 | < 100 | < 100 |  | 
CC(C)(O)c1cc(Cn2cc(C(=O)NCc3ccc4c(N)nccc4c3)c(C#N)n2)cc2cc(Cl)cnc12 [Example 59, N-((1-aminoisoquinolin-6-yl)methyl)-1-((3-chloro-8-(2-hydroxypropan-2-yl)quinolin-6-yl)methyl)-3-cyano-1H-pyrazole-4-carboxamide] | < 100 | < 100 | < 100 |  | 
Cc1cc(N)nc(C)c1CNC(=O)c1cnc(Cc2ccc3ncc(Cl)cc3c2)[nH]1 [Example 5, N-((6-amino-2,4-dimethylpyridin-3-yl)methyl)-2-((3-chloroquinolin-6-yl)methyl)-1H-imidazole-5-carboxamide] |  | < 100 | < 100 |  | BLQ
Cc1cc(N)nc(C)c1CNC(=O)c1nn(Cc2ccc3ncc(Cl)cc3c2)c2ccccc12 [Example 13, N-((6-amino-2,4-dimethylpyridin-3-yl)methyl)-1-((3-chloroquinolin-6-yl)methyl)-1H-indazole-3-carboxamide] | 100 to 1000 | < 100 |  | < 100 | 
Cc1cc(N)nc(C)c1CNC(=O)c1cn(Cc2ccc3ncc(Cl)cc3c2)c2cnc(C#N)cc12 [Example 134, N-((6-amino-2,4-dimethylpyridin-3-yl)methyl)-1-((3-chloroquinolin-6-yl)methyl)-5-cyano-1H-pyrrolo[2,3-c]pyridine-3-carboxamide] |  | < 100 |  | < 100 | BLQ
Cc1cc(N)nc(C)c1CNC(=O)c1oc(Cc2ccc3ncc(Cl)cc3c2)nc1C(F)(F)F [Example 37, N-((6-amino-2,4-dimethylpyridin-3-yl)methyl)-2-((3-chloroquinolin-6-yl)methyl)-4-(trifluoromethyl)oxazole-5-carboxamide] | 100 to 1000 | < 100 | < 100 |  | 
Cc1cc(N)nc(C)c1CNC(=O)c1cn(Cc2ccc3ncc(Cl)cc3c2)c2ncncc12 [Example 32, N-((6-amino-2,4-dimethylpyridin-3-yl)methyl)-7-((3-chloroquinolin-6-yl)methyl)-7H-pyrrolo[2,3-d]pyrimidine-5-carboxamide] | < 100 | < 100 |  | < 100 | 
